Measured values from patent US20150060744A1, “[…] BLUE DYE COMPOUND, BLUE RESIN COMPOSITION FOR COLOR FILTER CONTAINING SAME AND COLOR FILTER USING SAME” (KYUNG SYNTHETIC CO., LTD., priority 2012, published 2015).

Test: Solubility of blue dye compounds in PGMEA and cyclohexanone
Assay type: physicochemical
Conditions: for Solubility in PGMEA: solvent PGMEA (propylene glycol monomethyl ether acetate); for Solubility in cyclohexanone: solvent cyclohexanone

| SMILES | Solubility in PGMEA [%] | Solubility in cyclohexanone [%] |
| --- | --- | --- |
| C=C(C)C(=O)OCCN(CC)c1ccc(C(=C2C=CC(=[N+](CC)CCOC(=O)C(=C)C)C=C2)c2ccc(Nc3ccccc3)c3ccccc23)cc1 [Syn. Ex. 1] | >10 | >10 |
| CN(C)c1ccc(C(=C2C=CC(=[N+](C)C)C=C2)c2ccc(Nc3ccccc3)c3ccccc23)cc1 [compound 2] | <1 | <3 |
| C=C(C)C(=O)OCCN(CC)c1ccc(C(=C2C=CC(=[N+](CC)CCOC(=O)C(=C)C)C=C2)c2ccc(Nc3ccccc3)c3ccccc23)cc1 [Comp. Ex. 1] | <1 | <3 |
